{"source": "patent US20050043262A1", "about": "“Novel specific inhibitor of the cyclin kinase inhibitor p21Waf1/Cip1 and methods of using the inhibitor” (priority 2000, published 2005)", "key": {"[1]": {"test_system": "MCF7 cells", "experiment": "[3H]thymidine incorporation in MCF7 cells", "format": "cell-based, human", "conditions": "200 nM, serum 24 hours", "procedure": "Cell Culture and DNA Synthesis: T47D (ductal carcinoma) and MCF7 (adenocarcinoma) human breast cancer cell lines were obtained from the American Type Culture Collection. All cell lines were maintained according to vendors' recommendations. The cells were growth arrested by placing them in serum-free quiescence media and exposed to 10% serum-containing media as indicated. [^3H]Thymidine incorporation was assessed as described previously (Weiss, R. H., and Nuccitelli, R., J. Biol. Chem., 267: 5608-5613, 1992).\nApoptotic cells will not incorporate thymidine into DNA during S phase, but [^3H]thymidine incorporation experiments will not distinguish between G1→S arrest and apoptosis. Serum-starved cells were transfected with 200 nM antisense p21 and control ODN, stimulated with serum-containing media, and examined for their ability to incorporate [^3H]thymidine into DNA. […] Antisense p21 attenuates [^3H]thymidine incorporation. MCF7 and T47D cells were grown to confluence, serum starved for 24 hours, and lipofected with antisense p21 (AS) or control (SC) ODN at the concentrations indicated (in nM). […] Serum was added for 24 hours, and the cells were incubated with [^3H]thymidine for the last 6 hours. DNA synthesis was assessed by [^3H]thymidine incorporation and is expressed as mean +SD of 3 wells/data point. *, P <0.05 compared with antisense p21 ODN transfection. […]"}, "[2]": {"test_system": "A431 cells", "experiment": "[3H]thymidine incorporation (DNA synthesis) in A431 cells", "format": "cell-based, human", "procedure": "FIG. 9A-D are bar graphs showing Antisense p21^Waf1/Cip1 oligodeoxynucleotide has no significant effect DNA synthesis in PMA-inhibitable A431 cells, as described in Example II, infra. […] A431 cells were placed in serum-free medium overnight and then stimulated with (A) PDGF-BB (30 ng/ml), (B) 10% serum-containing medium, or (C) PDGF-BB or PMA (100 ng/ml) for another 8 hours before [^3H]-thymidine was added for overnight incubation. (D) A10 VSM cells were transfected with sense and antisense p21^Waf1/Cip1 oligonucleotides as above and treated similarly to (B). DNA synthesis was assessed by [^3H]-thymidine incorporation and is expressed as mean ±s.e.m. of three wells per data point. The absolute counts differ between experiments due to different confluency of the cells. The experiments shown are representative of two separate experiments.\nCell culture and DNA synthesis: Cultures of A10 and A431 cells were obtained from American Type Culture Collection (Rockville Md), were maintained as described (Weiss et al. 1998, Am. J. Physiol. 274, C1521-C1529), and were used between passages 15 and 24 or 25 and 35, respectively. The cells were growth-arrested by placing them in serum-free quiescence medium, exposed to growth factors as indicated, and [^3H]thymidine incorporation assessed as previously described (Weiss and Nuccitelli, 1992, J. Biol. Chem. 267, 5608-5613).\nThis A431 data is in contrast with that obtained in a variety of VSM cell lines, where cell growth was inhibited by similar oligodeoxynucleotide concentrations in cell stimulated with both PDGF-BB and serum (FIG. 9d)."}}, "data": [{"substance": "5′-ATC-CCC-AGC-CGG-TTC-TGA-CAT-3′ (antisense ATCCCCAGCCGGTTCTGACAT; listed as DNA, chemistry not fully specified) [antisense p21 ODN]", "values": [{"measurement": "[3H]thymidine incorporation (DNA incorporation)", "setting": "[1]", "result": "significant attenuation"}]}, {"substance": "5′-GACATCACCAGGATCGGACAT-3′", "values": [{"measurement": "DNA synthesis upon stimulation with PDGF or serum", "setting": "[2]; 0 to 400 nM oligodeoxynucleotide", "result": "no significant change"}, {"measurement": "difference in DNA synthesis between sense and antisense", "setting": "[2]; up to 800 nM", "result": "no difference"}]}]}
